Results as given in publication PMC11990879, “Anticandidal Activity of Lipopeptides Containing an LL-37-Derived Peptide Fragment KR12” (Molecules, 2025).
Values after ≈ are worked out from the molar mass of the structure shown. Read-outs that look alike come from different tables or passages of the source. Marks after values point to notes of the source that are not given here. Where a SMILES comes first, the peptide text is derived from it. The star is where a group is joined. Myristoyl = CCCCCCCCCCCCCC(=O)*; Lauroyl = CCCCCCCCCCCC(=O)*; Decanoyl = CCCCCCCCCC(=O)*; Octanoyl = CCCCCCCC(=O)*; X1 = CCCCCCC(CCCC)C(=O)*

What was measured:
[1] = tested on: C. albicans biofilms cultured on polystyrene; assay type: cell-based, Candida albicans
Description: (§1) Fungal strains were purchased from the Polish Collection of Microorganisms (Polish Academy of Science, Wroclaw, Poland). Four reference strains of Candida (C. albicans ATCC 10231, C. glabrata ATCC 15126, C. lypolytica PCM 2680, and C. tropicalis PCM 2680) were cultured on the Dextrose Sabouraud Agar (DSA, Neogen, Lansing, MI, USA). Before performing the assays, the fungi were cultured in a Sabouraud dextrose broth (DSB, Neogen, Lansing, MI, USA) for 48 h under aerobic conditions at 25 °C. Afterward, the fungal cultures were centrifuged (2500 rpm, 10 min) and resuspended in the appropriate liquid medium for appropriate inoculums for the performed assays.
Fungal suspensions in DSB were added to the wells at initial inoculums of ca. 5 × 10^6 CFU/mL and incubated under aerobic conditions, at 25 °C for 24 h, 48 h, and 72 h, in order to grow candidal biofilms of different maturity. After the appropriate time of incubation, the wells were washed with phosphoric buffered (PBS), and fresh RPMI medium supplemented with antifungals and the lipopeptides at graded concentrations (range […]) were added. The fungal biofilms were exposed to the compounds for 24 h (aerobic conditions, 25 °C). After the exposure to antifungals, the content of the wells was aspirated and a 0.01% solution of resazurin (Sigma-Aldrich, St. Louis, MO, USA) in DSB was added. Resazurin (blue) was applied as a cell viability reagent, which upon contact with living cells is reduced to a pink resorufin. The samples with the dye were incubated for 1 h at 25 °C and the absorbance was measured at 570 and 600 nm with a microplate reader (Thermo Fisher Scientific, Waltham, MA, USA). The assays were performed four times on four different days. The results are presented as the means of the measured percentage of metabolic activity (MA) of fungi in the well when compared with positive (sample with Candida in DSB) and negative controls (pure DSB), which were taken as 100% and 0%, respectively. The MA of Candida in the samples was measured according to the following formula:MA(%) = (ΔAbs of sample − ΔAbs of negative control)/(ΔAbs of positive control − ΔAbs of negative control);(1) ΔAbs = absorbance at 570 nm − absorbance at 600 nm.(2)
The MBEC was taken as the lowest concentration of antifungal which allowed us to reduce the metabolism of fungal cells to 10% (or less) of the positive control.

[2] = tested on: human red blood cells; conditions: cited from earlier work
Excerpt: Table 2 Minimum inhibitory concentrations (MIC) and minimum fungicidal concentrations (MFC) determined for peptides and reference antifungals [g/L]. The highest antimicrobial activity is marked in green, medium values in yellow, while the weakest antifungal activity is marked in red. Minimum hemolytic concentration (MHC5%—causing hemolysis of 5% of human red blood cells) determined in previous stu | column: MHC5%

[3] = tested on: Candida strains (C. albicans, C. glabrata, C. lipolytica, C. tropicalis); assay type: cell-based; conditions: for MIC, range over the tested strains: 48 h
Description: as §1
(§2) The strains cultured described in Section 4.1 were suspended in the Roswell Park Memorial Institute 1640 Medium (RPMI, Sigma-Aldrich, St. Louis, MO, USA) at an initial inoculum of ca. 5 × 10^3 CFU/mL. The stock solutions (1024 mg/L) of tested compounds in RPMI were added to 96-well polystyrene plates and diluted serially to well no. 10, leaving wells 11 and 12 for fertility and sterility controls. The tested Candida strains were exposed to graded concentrations (range 0.5–256 mg/L) of the lipopeptides and conventional antifungals (benzalkonium chloride, fluconazole, and nystatin) for 48 h under aerobic conditions at 25 °C. After incubation, the results were read visually.
(§3) Then the results were read visually. Both MIC as well as the MFC assays were performed threetimes on three different days.

[4] = tested on: Staphylococcus aureus biofilm; conditions: previous study; ref [21]; cited from earlier work
Excerpt: Lipidation has proven to be an effective strategy for improving the microbiological properties of the KR12-NH2 peptide. […] The influence of the structure of substituted fatty acids as well as the lipidation pattern was noticed. Among derivatives containing linear fatty acid residues, an analog with octanoic acid turned out to be the most promising antibacterial agent. The C8-KR12-NH2 peptide (compound IV) inhibited the growth of both Gram-p ...

[5] = tested on: C. albicans biofilms cultured on polystyrene; assay type: cell-based, Candida albicans; conditions: C. albicans biofilms of 24, 48 and 72 h, up to 512 mg/L
[6] = tested on: C. glabrata ATCC 15126; experiment: microbe, parasite or virus in culture; assay type: cell-based, Candida glabrata; conditions: Nakaseomyces glabratus, ATCC15126; first C. glabrata column; RPMI 1640, inoculum ca. 5 × 10^3 CFU/mL, range 0.5–256 mg/L, 48 h, 25 °C, read visually, three times on three days; read-out: Minimum inhibitory concentration (MIC), C. glabrata
Description: as §1, §2

[7] = tested on: C. albicans ATCC 10231; experiment: microbe, parasite or virus in culture; assay type: cell-based, Candida albicans; conditions: Candida albicans, ATCC10231; C. albicans; RPMI 1640, inoculum ca. 5 × 10^3 CFU/mL, range 0.5–256 mg/L, 48 h, 25 °C, read visually, three times on three days; read-out: Minimum inhibitory concentration (MIC), C. albicans
Description: as §1, §2

[8] = tested on: C. tropicalis PCM 2680; experiment: microbe, parasite or virus in culture; assay type: cell-based, Candida tropicalis; conditions: Candida tropicalis, PCM2680, MIC wells and two higher concentrations seeded on DSA, 48 h, 25 °C, read visually, three times, read-out: Minimum fungicidal concentration (MFC), C. tropicalis
Description: as §1, §2, §3

[9] = tested on: C. glabrata ATCC 15126; experiment: microbe, parasite or virus in culture; assay type: cell-based, Candida glabrata; conditions: Nakaseomyces glabratus, ATCC15126, MIC wells and two higher concentrations seeded on DSA, 48 h, 25 °C, read visually, three times, read-out: Minimum fungicidal concentration (MFC), C. glabrata
Description: as §1, §2, §3

[10] = tested on: C. albicans ATCC 10231; experiment: microbe, parasite or virus in culture; assay type: cell-based, Candida albicans; conditions: Candida albicans, ATCC10231, MIC wells and two higher concentrations seeded on DSA, 48 h, 25 °C, read visually, three times, read-out: Minimum fungicidal concentration (MFC), C. albicans
Description: as §1, §2, §3

[11] = tested on: C. lypolytica PCM 2680; experiment: microbe, parasite or virus in culture; assay type: cell-based, Candida lipolytica; conditions: Yarrowia lipolytica, PCM2680, MIC wells and two higher concentrations seeded on DSA, 48 h, 25 °C, read visually, three times, read-out: Minimum fungicidal concentration (MFC), C. lipolytica
Description: as §1, §2, §3

[12] = tested on: C. lypolytica PCM 2680; experiment: microbe, parasite or virus in culture; assay type: cell-based, Candida lipolytica; conditions: Yarrowia lipolytica, PCM2680, RPMI 1640, inoculum ca. 5 × 10^3 CFU/mL, range 0.5–256 mg/L, 48 h, 25 °C, read visually, three times on three days, read-out: Minimum inhibitory concentration (MIC), C. lipolytica
Description: as §1, §2

[13] = tested on: C. tropicalis PCM 2680; experiment: microbe, parasite or virus in culture; assay type: cell-based, Candida tropicalis; conditions: Candida tropicalis, PCM2680; C. tropicalis; RPMI 1640, inoculum ca. 5 × 10^3 CFU/mL, range 0.5–256 mg/L, 48 h, 25 °C, read visually, three times on three days; read-out: Minimum inhibitory concentration (MIC), C. tropicalis
Description: as §1, §2

[14] = biofilms cultured on polystyrene, 24 h
[15] = biofilms cultured on polystyrene, 48 h
[16] = biofilms cultured on polystyrene, 72 h

| Structure (SMILES) | MBEC 24 h [1, 14] | MBEC 48 h [1, 15] | MBEC 72 h [1, 16] | MHC5% (minimum hemolytic concentration causing hemolysis of 5% of human red blood cells) [2] [g/L] | MIC, range over the tested strains [3] [µg/mL] | MBEC against Staphylococcus aureus biofilm [4] [mg/L] | Antibiofilm activity against any type of biofilm [5] | other results |
| --- | --- | --- | --- | --- | --- | --- | --- | --- |
| CCCCCCCCCCCC(=O)N[C@@H](CCCCN)C(=O)N[C@@H](CCCNC(=N)N)C(=O)N[C@H](C(=O)N[C@H](C(=O)N[C@@H](CCC(N)=O)C(=O)N[C@@H](CCCNC(=N)N)C(=O)N[C@H](C(=O)N[C@@H](CCCCN)C(=O)N[C@@H](CC(=O)O)C(=O)N[C@@H](Cc1ccccc1)C(=O)N[C@@H](CC(C)C)C(=O)N[C@@H](CCCNC(=N)N)C(N)=O)[C@@H](C)CC)C(C)C)[C@@H](C)CC [VI, C12-KR12-NH2] (Lauroyl-KRIVQRIKDFLR-NH2) | 512 mg/L | >512 * mg/L | >512 * mg/L | 4 | 4 to 8 | 64 to 256 | – | – |
| CCCCCCC(CCCC)C(=O)N[C@@H](CCCCN)C(=O)N[C@@H](CCCNC(=N)N)C(=O)N[C@H](C(=O)N[C@H](C(=O)N[C@@H](CCC(N)=O)C(=O)N[C@@H](CCCNC(=N)N)C(=O)N[C@H](C(=O)N[C@@H](CCCCN)C(=O)N[C@@H](CC(=O)O)C(=O)N[C@@H](Cc1ccccc1)C(=O)N[C@@H](CC(C)C)C(=O)N[C@@H](CCCNC(=N)N)C(N)=O)[C@@H](C)CC)C(C)C)[C@@H](C)CC (some centres unmarked) [XIX, 2-Butyloctanoic acid-KR12-NH2] (X1-KRIVQRIKDFLR-NH2) | >512 * mg/L | >512 * mg/L | >512 * mg/L | 16 | 4 to 16 | – | did not exhibit antibiofilm activity | – |
| CCCCCCCCCCCCCC(=O)N[C@@H](CCCCN)C(=O)N[C@@H](CCCNC(=N)N)C(=O)N[C@H](C(=O)N[C@H](C(=O)N[C@@H](CCC(N)=O)C(=O)N[C@@H](CCCNC(=N)N)C(=O)N[C@H](C(=O)N[C@@H](CCCCN)C(=O)N[C@@H](CC(=O)O)C(=O)N[C@@H](Cc1ccccc1)C(=O)N[C@@H](CC(C)C)C(=O)N[C@@H](CCCNC(=N)N)C(N)=O)[C@@H](C)CC)C(C)C)[C@@H](C)CC [VII, C14-KR12-NH2] (Myristoyl-KRIVQRIKDFLR-NH2) | 256 mg/L | 256 mg/L | 512 mg/L | 4 | 4 to 8 | 64 to 256 | – | – |
| CCCCCCCCCC(=O)N[C@@H](CCCCN)C(=O)N[C@@H](CCCNC(=N)N)C(=O)N[C@H](C(=O)N[C@H](C(=O)N[C@@H](CCC(N)=O)C(=O)N[C@@H](CCCNC(=N)N)C(=O)N[C@H](C(=O)N[C@@H](CCCCN)C(=O)N[C@@H](CC(=O)O)C(=O)N[C@@H](Cc1ccccc1)C(=O)N[C@@H](CC(C)C)C(=O)N[C@@H](CCCNC(=N)N)C(N)=O)[C@@H](C)CC)C(C)C)[C@@H](C)CC [V, C10-KR12-NH2] (Decanoyl-KRIVQRIKDFLR-NH2) | >512 * mg/L | >512 * mg/L | >512 * mg/L | 4 | – | – | did not exhibit antibiofilm activity | – |
| CCCCCCCC(=O)N[C@@H](CCCCN)C(=O)N[C@@H](CCCNC(=N)N)C(=O)N[C@H](C(=O)N[C@H](C(=O)N[C@@H](CCC(N)=O)C(=O)N[C@@H](CCCNC(=N)N)C(=O)N[C@H](C(=O)N[C@@H](CCCCN)C(=O)N[C@@H](CC(=O)O)C(=O)N[C@@H](Cc1ccccc1)C(=O)N[C@@H](CC(C)C)C(=O)N[C@@H](CCCNC(=N)N)C(N)=O)[C@@H](C)CC)C(C)C)[C@@H](C)CC [IV, C8-KR12-NH2] (Octanoyl-KRIVQRIKDFLR-NH2) | – | – | – | 64 | – | 4 to 16 | – | – |
| OC(Cn1cncn1)(Cn1cncn1)c1ccc(F)cc1F [Fluconazole, fluconazole, reference compound] | – | – | – | – | – | – | showed no antibiofilm activity | MBEC 24 h ([1]; C. albicans biofilm cultured on polystyrene for 24 h, exposure 24 h, 25 °C, RPMI, resazurin, metabolic activity reduced to 10% or less, four times on four days): >512 * mg/L; MBEC 48 h ([1]; C. albicans biofilm cultured on polystyrene for 48 h, exposure 24 h, 25 °C, RPMI, resazurin, metabolic activity reduced to 10% or less, four times on four days): >512 * mg/L; MBEC 72 h ([1]; C. albicans biofilm cultured on polystyrene for 72 h, exposure 24 h, 25 °C, RPMI, resazurin, metabolic activity reduced to 10% or less, four times on four days): >512 * mg/L; MIC [6]: 500 µg/mL (≈ 1.63 mM); MIC [7]: 4000 µg/mL (≈ 13.1 mM); MFC [8]: 8000 µg/mL (≈ 26.1 mM); MFC [9]: 2000 µg/mL (≈ 6.53 mM); Fungicidal activity (MFC relative to MIC) ([3]; MFCs equal to or twice as high as the corresponding MICs): fungicidal activity against C. albicans and C. glabrata; MFC [10]: 8000 µg/mL (≈ 26.1 mM); MFC [11]: 8000 µg/mL (≈ 26.1 mM); MIC [12]: 2000 µg/mL (≈ 6.53 mM); MIC [13]: 2000 µg/mL (≈ 6.53 mM) |
